This is an account of results in patent US20240382520A1, “COMPOSITION FOR PREVENTING AND TREATING CANCER THROUGH MITOCHONDRIAL METABOLISM REGULATION CONTAINING NANOGRAPHENE STRUCTURE” (SEOUL NATIONAL UNIVERSITY R & DB FOUNDATION, priority 2021, published 2024).

The subject of the experiment is colon cancer. Nature of the experiment: Oral administration in colon cancer model induced with Azoxymethane and Dextran sodium sulfate (DSS). It is filed as in vivo, mouse. The protocol:
It was determined whether orally administering the nanographene structure or a modified structure thereof has an effect on cancer occurrence and the mitigation of progression in vivo. Specifically, according to Table 1, rats that were not induced with colon cancer (sham group) and rats that were induced with colon cancer and administered with nanographene oxide (danGO group) were used, and rats that were induced with colon cancer were used as a negative control group (vehicle group), and as a positive control group, rats that were administered with 5-fluorouracil (5-FU), which is an anticancer drug, were prepared. In the negative control group, colon cancer was induced by using Azoxymethane and Dextran sodium sulfate (DSS). In the danGO group which was the experimental group, danGO was orally administered at a dose of 250 μg/mouse 5 times every 3 days to rats that were induced with colon cancer.
In the same manner as in Example 7-1, the effect of modified nanographene oxide, NGO-NH2, on in vivo cancer occurrence and progression mitigation was confirmed.
Next, the spleen was separated and the size and weight were measured in order to determine the effect on the degree of systemic inflammation. The spleen is an important lymphoid organ, accounting for about 25% of the body weight of the lymphatic organ. […]

Consider `O=c1[nH]cc(F)c(=O)[nH]1` [5-FU, 5-fluorouracil], for which the “length of the colon compared to the vehicle group” value (Example 7-1, oral, danGO 250 μg/mouse 5 times every 3 days) is on record as “preserved statistically significantly”. Further, the “alleviation of disease (colon length and diameter) compared to the vehicle group” value (Example 7-2) was “significantly alleviated”.
